Point of comparison: `COc1ccc(CCNC[C@H](O)COc2ccc(COCc3ncc[nH]3)cc2)cc1OC`, logP 1.29. Against it:
- COc1ccc(CCNC[C@H](O)COc2ccc(-c3nc(Br)c(C)[nH]3)cc2)cc1OC — higher, 2.69
- COc1ccc(CCNC[C@H](O)COc2ccc(-c3ncc(C(C)(C)C)[nH]3)cc2)cc1OC — higher, 2.86
- COc1ccc(CCNC[C@H](O)COc2ccc(Cc3ncc(C)[nH]3)cc2)cc1OC — within 0.2 log units, 1.28
- CCCNCC(O)COc1ccc(-c2ncc(-c3cccs3)[nH]2)cc1 (centres undefined) — higher, 2.84
- COc1ccc(CCNCC(O)COc2ccc(OCc3ncc[nH]3)cc2)cc1OC (centres undefined) — within 0.2 log units, 1.21
- COc1ccc(CCNCC(O)COc2ccc(-c3ncco3)cc2)cc1OC (centres undefined) — higher, 2.6
- COc1ccc(CCNC[C@H](O)COc2ccc(-c3nc(Cl)c(C)[nH]3)cc2)cc1OC — higher, 2.35
- CC(C)NCC(O)COc1ccc(-c2ncc[nH]2)cc1 (centres undefined) — lower, 0.65
- CC(C)NC[C@H](O)COc1ccc(Cc2ncc(Br)[nH]2)cc1 — within 0.2 log units, 1.35
- COc1ccc(CCNC[C@H](O)COc2ccc(-c3ncc(Cl)[nH]3)cc2)cc1OC — higher, 2.4
- CCCCNC(=O)NCCNCC(O)COc1ccc(-c2ncc(C)[nH]2)cc1 (centres undefined) — within 0.2 log units, 1.24
- CC(C)NCC(O)COc1ccc(-c2ncc(-c3cccs3)[nH]2)cc1 (centres undefined) — higher, 2.18
- COc1ccc(CCNC[C@H](O)COc2ccc(-c3nc(C(C)=O)c(C)[nH]3)cc2)cc1OC — higher, 2.14
- CCOCc1cnc(-c2ccc(OC[C@@H](O)CNCCc3ccc(OC)c(OC)c3)cc2)[nH]1 — lower, 0.84
- COCc1cnc(-c2ccc(OC[C@@H](O)CNCCc3ccc(OC)c(OC)c3)cc2)[nH]1 — higher, 1.71
- CC(C)NC[C@H](O)COc1ccc(-c2ncc(C(C)C)[nH]2)cc1 — higher, 2.23
- OC(CNCCc1ccncc1)COc1ccc(-c2ncc(-c3cccs3)[nH]2)cc1 (centres undefined) — higher, 2.25
- COc1ccc(CCNCC(O)COc2ccc(-c3ncc(C)[nH]3)cc2OC)cc1OC (centres undefined) — higher, 1.89
- COCc1nc(-c2ccc(OC[C@@H](O)CNCCc3ccc(OC)c(OC)c3)cc2)[nH]c1C — lower, 1.07
- COc1ccc(CCNC[C@H](O)COc2ccc(Cc3ncc(C(C)=O)[nH]3)cc2)cc1OC — lower, 0.87
- COc1ccc(CCNC[C@H](O)COc2ccc(-c3ncc(C(C)C)[nH]3)cc2)cc1OC — higher, 2.49
- O=C(NCCNCC(O)COc1ccc(-c2ncc[nH]2)cc1)Nc1ccccc1 (centres undefined) — within 0.2 log units, 1.19
- CC(C)(C)NC[C@H](O)COc1ccc(Cc2ncc(-c3cccs3)[nH]2)cc1 — higher, 2.57
- COc1ccc(CCNC[C@H](O)COc2ccc(-c3ncc(Br)[nH]3)cc2)cc1OC — higher, 1.9
- COc1ccc(CCNC[C@H](O)COc2ccc(Cc3ncc(-c4cccs4)[nH]3)cc2)cc1OC — higher, 2.28
- COc1ccc(CCNC[C@H](O)COc2ccc(-c3ncc(C(C)=O)[nH]3)cc2)cc1OC — within 0.2 log units, 1.23
- COc1ccc(CCNCC(O)COc2ccc(-c3ncc(C)[nH]3)cc2Br)cc1OC (centres undefined) — higher, 2.3
- COc1ccc(CCNC[C@H](O)COc2ccc(-c3ncc(C(N)=O)[nH]3)cc2)cc1OC — lower, 0.99
- COc1ccc(CCNC[C@H](O)COc2ccc(-c3ncc(CO)[nH]3)cc2)cc1OC — lower, 0.63
- COc1ccc(CCNC[C@H](O)COc2ccc(-c3ncc(Br)[nH]3)cc2Cl)cc1OC — higher, 2.73
- Cc1cnc(Cc2ccc(OC[C@@H](O)CNC(C)(C)C)cc2)[nH]1 — within 0.2 log units, 1.11
- COCCc1cnc(-c2ccc(OC[C@@H](O)CNCCc3ccc(OC)c(OC)c3)cc2)[nH]1 — higher, 2.06
- COc1ccc(CCNCC(O)COc2ccc(-c3nccn3C)cc2)cc1OC (centres undefined) — higher, 2.08
- COc1ccc(CCNC[C@H](O)COc2ccc(-c3ncc(-c4cccs4)[nH]3)cc2C)cc1OC — higher, 3.32
- COc1ccc(CCNC[C@H](O)COc2ccc(CCc3ncc(-c4cccs4)[nH]3)cc2)cc1OC — higher, 2.08
- CCOCCNCC(O)COc1ccc(-c2ncc(-c3cccs3)[nH]2)cc1 (centres undefined) — higher, 2.25
- CCOC(=O)c1cnc(-c2ccc(OC[C@@H](O)CNCCc3ccc(OC)c(OC)c3)cc2)[nH]1 — higher, 2.3
- COc1ccc(CCNCC(O)COc2ccc(-c3ncc(C)n3C)cc2)cc1OC (centres undefined) — higher, 1.72

Reference: the SangsterLogP compilation
